Measured values from patent publication US20240150709A1, “COMPOSITIONS AND METHODS FOR MAKING PARASYMPATHETIC NEURONS” (University of Georgia Research Foundation, Inc., priority 2022, published 2024).

Key:
hPSC-parasymNs = assay: MEA neural activity of hPSC-parasymNs; assay type: cell-based, human; settings: for parasymN activity (relative MFR: mean firing rate): 1 μM vs control, day 30 hPSC-parasymNs
Protocol: (§2) For neural activity measurements, day 16 SCPs were plated on PO/LM/FN coated MEA plates (Axion BioSystems, BioCircuit or CytoView) at 100×10^3 cells/cm^2. […] Activity of differentiated parasymNs or CMs/SMCs on desired timepoints was measured using a MEA plate reader (Axion BioSystems, Maestro Pro) under the neural detection mode or cardiac detection mode, respectively, according to manufacturer's instruction.

hPSC-symNs = assay: MEA neural activity of hPSC-symNs; assay type: cell-based, human; settings: 6-OHDA 100 μM, normalized to vehicle
Protocol: as §2

symN = assay: 6-OHDA toxicity in symN (western blot, immunostaining, microscopy); assay type: cell-based, human
Protocol: Day 30 parasymNs and symNs on 6-well plates were prepared for sample collection. One well for each sample. Cells were washed by PBS and scraped after incubating with lysis buffer contains RIPA buffer (Sigma-Aldrich, R0278, 1×), PMSF protease inhibitor (Thermo Fisher Scientific, 36978, 1 mM) and PhosSTOP phosphatase inhibitor (Sigma-Aldrich, 4906845001). Protein concentration was measured using Bradford reagent (Bio-Rad, 5000006). Proteins were loaded as 20 μg/well and ran in 12% acrylamide gel. After the transfer, nitrocellulose membranes were blocked by 5% skim milk in TBST.
Membranes were incubated with primary antibodies overnight at 4° C. The next day, membranes were washed by PBST and incubated with secondary antibodies for one hour at room temperature. Images were taken using the iBright western blot imager (Invitrogen, FL1500).
(§1) Cells were fixed by 4% paraformaldehyde for 20 minutes and washed twice by PBS. Fixed cells were permeabilized by 0.3% Triton, 1% BSA and 3% goat or donkey serum in 1× PBS for 20 minutes, and incubated with primary antibodies overnight at 4° C. The next day, cells were washed and incubated with secondary antibodies for one hour at room temperature. Lastly, cells were washed and incubated with DAPI (Sigma, D9542, 1:1000) for 15 minutes at room temperature. Fluorescent images were taken using the Lionheart FX Automated Microscope.

parasymN = assay: 6-OHDA toxicity in parasymN (microscopy); assay type: cell-based, human; settings: parasymN after 6-OHDA
Protocol: as §1

[1] = tested on: non-neural contaminating cell types; assay: Purification of non-neural contaminating cells in parasymN differentiation; assay type: cell-based, human; settings: AraC added during the differentiation
Protocol: FIG. 13A illustrates that cell cycle inhibitor AraC was added during the differentiation.

[2] = tested on: 3T3-L1-derived white adipocytes; assay: Lipolysis assay, 3T3-L1-derived white adipocytes alone; assay type: cell-based, mouse; settings: 10 μM isoproterenol; differentiated adipocytes alone
Protocol: 3T3-L1 were seeded at 20×10^3 cells/cm^2 and fed until 80% confluency, which was defined as day 0. From day 0-3, cells were fed with the differentiation medium containing DMEM (Gibco, 11965118), 10% FBS, 0.5 mM IBMX (Cayman, 13347), 1 μM dexamethasone (Sigma, D2915), and 10 μg/ml insulin (Sigma, 19278). From day 3-6, cells were fed with post-differentiation medium containing DMEM, 10% FBS, and 10 μg/ml insulin. After day 6, cells were maintained in DMEM with 10% FBS until the desired timepoints. To begin with, adipocyte culture medium was replaced with prewarmed lipolysis medium containing 0.5% BSA in DMEM, and cells were incubated for 4 hours at 37° C. After 4 hours, the lipolysis medium was replaced with fresh prewarmed lipolysis medium with test drugs and incubate for 90 minutes at 37° C. […] Glycerol release in adipocyte cultured medium was measured using Adipolysis Assay Kit (Cayman, 10009381) according to manufacturer's instruction.

[3] = tested on: 3T3-L1-derived white adipocytes; assay: Lipolysis assay, white adipocytes with or without parasymN co-culture; assay type: cell-based, mouse
Protocol: To begin with, adipocyte culture medium was replaced with prewarmed lipolysis medium containing 0.5% BSA in DMEM, and cells were incubated for 4 hours at 37° C. After 4 hours, the lipolysis medium was replaced with fresh prewarmed lipolysis medium with test drugs and incubate for 90 minutes at 37° C. Then, the cell culture medium was collected for the assay or stored at −20° C. for long-term storage. Glycerol release in adipocyte cultured medium was measured using Adipolysis Assay Kit (Cayman, 10009381) according to manufacturer's instruction.
To test whether adipose functions can be regulated by parasymN activity, the lipolytic activity was compared.

mouse salivary cell = assay: Calcium imaging of parasymN and mouse salivary cell coculture; assay type: cell-based; settings: coculture with parasymN; nicotine stimulation
Description: FIG. 14B is a plot showing calcium imaging for salivary cell only upon nicotine stimulation.

hPSC-CMs = settings: nicotine 1 μM; co-culture with hPSC-parasymNs; MEA
Protocol: CM differentiation. […] Briefly, 80-90% confluent H9 ESCs were replated at a 1 to 5 ratio on Matrigel (Corning, 1:20)-coated plates. When cells reached 90% confluency, medium was changed to CDBM base medium, that contains DMEM/F12 (Gibco, 11320033), 64 mg/L ascorbic acid, 13.6 μg/L sodium selenium (Sigma, S5261), 10 μg/ml transferrin (Sigma, T3309) and Chemically Defined Lipid Concentrate (Gibco, 11905031). 5 μM CHIR99021 was added to CDBM medium on day 0. 0.6 U/ml heparin ([sequence] Technologies, 07980) was added to CDBM medium on day 1, 5, 6. 0.6 U/ml heparin and 3 μM XAV were added to CDBM medium on day 2, 3, 4. After day 7, medium was changed to CM maintenance medium that contains CDBM base, 20 μg/ml insulin (Sigma, 1-034), and 2% FBS. CMs were replated on day 10 using accutase at 200×10^3 cells/cm^2 on Matrigel-coated plates. […]
as §2

NCCc1cc(O)c(O)cc1O [6-OHDA]
relative MFR over 12 hours after 6-OHDA (hPSC-parasymNs; 6-OHDA 100 μM, hPSC-parasymNs, normalized to vehicle): remained unaffected
relative MFR over 12 hours after 6-OHDA (hPSC-symNs): displayed early hyperactivity
cell death markers PUMA/c-Cas3, western blot (symN; 12 hours after treating parasymN/symN with 6-OHDA): increased only in symN
cell death marker c-Cas3, percentage of cells by immunostaining (symN; 24 hours after treating parasymN/symN with 6-OHDA): increased only in symN
neural morphology by microscopy (symN; symN after 6-OHDA): damaged neural morphology
neural morphology by microscopy (parasymN): almost intact

Nc1ccn([C@@H]2O[C@H](CO)[C@@H](O)[C@@H]2O)c(=O)n1 [AraC]
contaminating cells by immunostaining [1]: reduced

CC(C[N+](C)(C)C)OC(N)=O (stereo not shown) [BeCh, bethanechol]
parasymN activity (relative MFR: mean firing rate) (hPSC-parasymNs; MEA): activated

CN1[C@@H]2CC[C@H]1C[C@@H](OC(=O)C(CO)c1ccccc1)C2 (stereo partly shown) [atropine]
parasymN activity (relative MFR: mean firing rate) (hPSC-parasymNs; MEA): inactivated

CC(C)NCC(O)c1ccc(O)c(O)c1 (stereo not shown) [isoproterenol]
lipolytic activity (glycerol release) [2]: displayed lipolytic activity
lipolytic levels induced by isoproterenol (normalized glycerol release) ([3]; 10 μM isoproterenol, adipocytes co-cultured with parasymNs): counteracted

CN1CCCC1c1cccnc1 (stereo not shown) [nicotine]
parasymN activity (relative MFR: mean firing rate) (hPSC-parasymNs; MEA): further inducible
lipolysis levels (glycerol release) ([3]; 1 μM nicotine, adipocytes only or parasymN co-cultured): remained unchanged
salivary cell activity (calcium imaging) (mouse salivary cell): increased
beating of hPSC-CMs (relative beats/min) (hPSC-CMs): decreased

angiotensin II (DRVYIHPF; Angiotensin-2; UniProt P01019 25-32, looked up) [Ang II, angiotensin II of the renin-angiotensin-aldosterone system]
parasymN activity (fold change of MFR) (hPSC-parasymNs; angiotensin II vs control (DMSO), MEA): decreased
